# Several values for one entry are separate records, joined by “and”; a condition that tells them apart may be missing. Equal values may be shown once. Inconclusive results and toxic doses are left out.
# System: P388 leukemia ip, CD2F1 mice, survival T/C
# Test: NCI In Vivo Anticancer Drug Screen. Data for tumor model P388 Leukemia (intraperitoneal) in CD2F1 (CDF1) mice
# Conditions: endpoint: median survival time, higher = longer survival
# Summary of the method: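 Mice carrying the transplanted tumor received test compound or vehicle. Survival was recorded in each group, and the value is the treated-group measurement divided by that of the vehicle-treated control group.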
# [1] = dose: 60.0 mg/kg/injection, schedule: Q01DX005 (ip), vehicle: Klucel (hydroxypropylcellulose) (HPC)
# [2] = dose: 120.0 mg/kg/injection, schedule: Q01DX005 (ip), vehicle: Klucel (hydroxypropylcellulose) (HPC)
# [3] = dose: 240.0 mg/kg/injection, schedule: Q01DX005 (ip), vehicle: Klucel (hydroxypropylcellulose) (HPC)
# [4] = dose: 50.0 mg/kg/injection, schedule: Q01DX005 (ip), vehicle: saline with Tween-80
# [5] = dose: 100.0 mg/kg/injection, schedule: Q01DX005 (ip), vehicle: saline with Tween-80
# [6] = dose: 60.0 mg/kg/injection, schedule: Q01DX005 (ip), vehicle: saline with Tween-80
# [7] = dose: 120.0 mg/kg/injection, schedule: Q01DX005 (ip), vehicle: saline with Tween-80
# [8] = dose: 200.0 mg/kg/injection, schedule: Q01DX005 (ip), vehicle: saline with Tween-80
# [9] = dose: 50.0 mg/kg/injection, schedule: Q01DX009 (ip), vehicle: Klucel (hydroxypropylcellulose) (HPC)
# [10] = dose: 100.0 mg/kg/injection, schedule: Q01DX009 (ip), vehicle: Klucel (hydroxypropylcellulose) (HPC)
# [11] = dose: 200.0 mg/kg/injection, schedule: Q01DX009 (ip), vehicle: Klucel (hydroxypropylcellulose) (HPC)
# [12] = dose: 50.0 mg/kg/injection, schedule: Q01DX005 (ip), vehicle: saline
# [13] = dose: 100.0 mg/kg/injection, schedule: Q01DX005 (ip), vehicle: saline
# [14] = dose: 50.0 mg/kg/injection, schedule: Q01DX009 (ip), vehicle: saline with Tween-80
# [15] = dose: 100.0 mg/kg/injection, schedule: Q01DX009 (ip), vehicle: saline with Tween-80
# [16] = dose: 200.0 mg/kg/injection, schedule: Q01DX009 (ip), vehicle: saline with Tween-80
# [17] = dose: 50.0 mg/kg/injection, schedule: Q01DX005 (ip), vehicle: Klucel (hydroxypropylcellulose) (HPC)
# [18] = dose: 400.0 mg/kg/injection, schedule: Q01DX009 (ip), vehicle: saline with Tween-80
# [19] = dose: 50.0 mg/kg/injection, schedule: Q01DX009 (ip), vehicle: saline
# [20] = dose: 100.0 mg/kg/injection, schedule: Q01DX009 (ip), vehicle: saline
# [21] = dose: 200.0 mg/kg/injection, schedule: Q01DX009 (ip), vehicle: saline
# [22] = dose: 150.0 mg/kg/injection, schedule: Q01DX009 (ip), vehicle: saline with Tween-80
structure (smiles),measurement,setting,value
Cc1cc2c(c(O)cc(=O)n2C)c(=O)n1C,T/C,[1],102 % of control
same,T/C,[2],91 % of control
same,T/C,[3],91 % of control
O=[N+]([O-])C(Br)(Br)S(=O)(=O)c1ccccc1,T/C,[4],97 % of control
same,T/C,[5],106 % of control
Cc1ccc(-n2c(=S)n(-c3ccccc3C)c3nc4ccccc4nc2/c3=N\Nc2ccccc2)cc1,T/C,[6],100 % of control
same,T/C,[7],93 % of control
CC(=O)Nc1ccc2cc(-c3ccc(Cl)cc3)c3nnnn3c2n1,T/C,[4],96 % of control
same,T/C,[5],94 % of control
same,T/C,[8],93 % of control
N#Cc1c(Cl)nsc1-c1ccc([N+](=O)[O-])cc1,T/C,[9],119 % of control
same,T/C,[10],92 % of control
same,T/C,[11],103 % of control
CCN(CC)Cc1c(O)ccc(C(C)=O)c1O,T/C,[12],89 % of control
same,T/C,[13],100 % of control
O=S(=O)(O)C1CC(S(=O)(=O)O)NC(S(=O)(=O)O)C1 (stereo not given),T/C,[12],99 % of control
same,T/C,[13],98 % of control
same,T/C,"dose: 200.0 mg/kg/injection, schedule: Q01DX005 (ip), vehicle: saline",94 % of control
CN(C)C=Nc1ccccc1C#N,T/C,[14],105 % of control
same,T/C,[15],106 % of control
same,T/C,[16],97 % of control
CCOC(=O)N(CCCl)N=O,T/C,"dose: 0.31 mg/kg/injection, schedule: Q01DX009 (ip), vehicle: saline with Tween-80",114 % of control
same,T/C,"dose: 0.62 mg/kg/injection, schedule: Q01DX009 (ip), vehicle: saline with Tween-80",118 % of control
same,T/C,"dose: 2.5 mg/kg/injection, schedule: Q01DX009 (ip), vehicle: saline with Tween-80",96 % of control
CC1(C)C2CCC(C2)C1/C=C1/SC(=S)NC1=O (stereo not given),T/C,[17],99 % of control
same,T/C,"dose: 100.0 mg/kg/injection, schedule: Q01DX005 (ip), vehicle: Klucel (hydroxypropylcellulose) (HPC)",100 % of control
same,T/C,"dose: 200.0 mg/kg/injection, schedule: Q01DX005 (ip), vehicle: Klucel (hydroxypropylcellulose) (HPC)",100 % of control
COc1cccc2c1C(=O)c1c(O)c3c(c(O)c1C2=O)C[C@@](O)(C(=O)CO)C[C@@H]3OC1CC(N2CCCCC2)C(O)C(C)O1 (stereo not given in full),T/C,"dose: 0.78 mg/kg/injection, schedule: Q01DX009 (ip), vehicle: water",151 % of control
same,T/C,"dose: 1.2 mg/kg/injection, schedule: Q04DX003 (ip), vehicle: water",100 % of control
same,T/C,"dose: 1.56 mg/kg/injection, schedule: Q01DX009 (ip), vehicle: water",184 % of control
same,T/C,"dose: 2.4 mg/kg/injection, schedule: Q04DX003 (ip), vehicle: water",113 % of control
same,T/C,"dose: 3.13 mg/kg/injection, schedule: Q01DX009 (ip), vehicle: water",190 % of control
same,T/C,"dose: 4.7 mg/kg/injection, schedule: Q04DX003 (ip), vehicle: water",106 % of control
same,T/C,"dose: 9.4 mg/kg/injection, schedule: Q04DX003 (ip), vehicle: water",155 % of control
same,T/C,"dose: 37.5 mg/kg/injection, schedule: Q04DX003 (ip), vehicle: water",87 % of control
CCCN1c2c3c(O)c4c(O)c(C)c5c(c4c2O)C(=O)C(C)(O/C=C/C(OC)C(C)C(OC(C)=O)C(C)C(O)C(C)C(O)C(C)/C=C/C=C(/C)C(=O)N3C1C)O5 (stereo not given),T/C,"dose: 25.0 mg/kg/injection, schedule: Q01DX009 (ip), vehicle: Klucel (hydroxypropylcellulose) (HPC)",96 % of control
same,T/C,[9],101 % of control
same,T/C,[10],93 % of control
same,T/C,[11],90 % of control
O=C(O)C1CCCCC1c1c2ccc(=O)cc-2oc2cc(O)ccc12 (stereo not given),T/C,[15],90 % of control
same,T/C,[16],95 % of control
same,T/C,[18],100 % of control
CCOC(=O)CN=Cc1ccccc1,T/C,[6],107 % of control
same,T/C,[7],108 % of control
same,T/C,"dose: 240.0 mg/kg/injection, schedule: Q01DX005 (ip), vehicle: saline with Tween-80",107 % of control
COC1(C2COc3cc(OCc4ccccc4)ccc3C2=O)C=C2OCOC2=CC1=O (stereo not given),T/C,"dose: 12.5 mg/kg/injection, schedule: Q01DX005 (ip), vehicle: Klucel (hydroxypropylcellulose) (HPC)",99 % of control
same,T/C,"dose: 25.0 mg/kg/injection, schedule: Q01DX005 (ip), vehicle: Klucel (hydroxypropylcellulose) (HPC)",96 % of control
same,T/C,[17],89 % of control
NS(=O)(=O)c1ccc(N=NC2C(=O)N(c3ccc(Cl)cc3)C(=S)N(c3ccc(Cl)cc3)C2=O)cc1,T/C,"dose: 12.5 mg/kg/injection, schedule: Q01DX005 (ip), vehicle: saline",100 % of control
same,T/C,"dose: 25.0 mg/kg/injection, schedule: Q01DX005 (ip), vehicle: saline",100 % of control
same,T/C,[12],108 % of control and 118 % of control
COc1ccc(C2CC(=O)c3c(O)cc(OC4OC(COC5OC(C)C(O)C(O)C5O)C(O)C(O)C4O)cc3O2)cc1O (stereo not given),T/C,[4],94 % of control
same,T/C,[5],100 % of control
same,T/C,[8],92 % of control
S=c1nc(-c2ccccn2)c(-c2ccccn2)n[nH]1,T/C,[4],116 % of control and 117 % of control
same,T/C,[5],121 % of control
same,T/C,[8],119 % of control and 120 % of control
same,T/C,"dose: 400.0 mg/kg/injection, schedule: Q01DX005 (ip), vehicle: saline with Tween-80",120 % of control
CC(C)(C)c1cc2c(c(C(C)(C)C)c1)[O][Sb]([c]1ccccc1)([c]1ccccc1)([c]1ccccc1)[NH]2,T/C,[14],110 % of control
same,T/C,[15],115 % of control
CC(=O)NC(Cc1ccccc1F)C(=O)O (stereo not given),T/C,[19],94 % of control
same,T/C,[20],94 % of control
same,T/C,[21],97 % of control
CCCCNC=C1C(=O)Nc2ccccc2NC1=O,T/C,[1],98 % of control
same,T/C,[2],92 % of control
same,T/C,[3],91 % of control
Clc1ccc2c(NCCCCCCCCNc3c4ccccc4nc4cc(Cl)ccc34)c3ccccc3nc2c1,T/C,"dose: 0.63 mg/kg/injection, schedule: Q01DX009 (ip), vehicle: other",112 % of control
same,T/C,"dose: 1.25 mg/kg/injection, schedule: Q01DX009 (ip), vehicle: other",108 % of control
same,T/C,"dose: 2.5 mg/kg/injection, schedule: Q01DX009 (ip), vehicle: other",110 % of control
same,T/C,"dose: 3.75 mg/kg/injection, schedule: Q01DX009 (ip), vehicle: other",108 % of control
same,T/C,"dose: 5.0 mg/kg/injection, schedule: Q01DX009 (ip), vehicle: other",112 % of control
same,T/C,"dose: 7.5 mg/kg/injection, schedule: Q01DX009 (ip), vehicle: other",110 % of control
same,T/C,"dose: 10.0 mg/kg/injection, schedule: Q01DX009 (ip), vehicle: other",110 % of control
same,T/C,"dose: 15.0 mg/kg/injection, schedule: Q01DX009 (ip), vehicle: other",112 % of control
same,T/C,"dose: 20.0 mg/kg/injection, schedule: Q01DX009 (ip), vehicle: other",120 % of control
CCOC(=O)/C(=N/NS(=O)(=O)c1c(C)cc(C)cc1C)c1ccco1,T/C,[14],113 % of control
same,T/C,[15],106 % of control
same,T/C,[16],104 % of control
CN(/N=N/N(C)c1ccccc1)c1ccccc1,T/C,"dose: 25.0 mg/kg/injection, schedule: Q01DX009 (ip), vehicle: saline with Tween-80",103 % of control and 93 % of control
same,T/C,"dose: 44.0 mg/kg/injection, schedule: Q01DX009 (ip), vehicle: saline with Tween-80",118 % of control
same,T/C,[14],101 % of control and 107 % of control
same,T/C,"dose: 66.0 mg/kg/injection, schedule: Q01DX009 (ip), vehicle: saline with Tween-80",104 % of control
same,T/C,[15],98 % of control and 110 % of control and 90 % of control
same,T/C,[22],100 % of control
same,T/C,[16],103 % of control and 94 % of control
same,T/C,[18],100 % of control and 86 % of control
Cc1c(-c2ccncc2)nc2ccccc2c1C(=O)O,T/C,[4],100 % of control
same,T/C,[5],100 % of control
same,T/C,[8],97 % of control
NN=C(c1ccccn1)c1ccccn1,T/C,"dose: 37.5 mg/kg/injection, schedule: Q01DX009 (ip), vehicle: saline with Tween-80",94 % of control
same,T/C,"dose: 75.0 mg/kg/injection, schedule: Q01DX009 (ip), vehicle: saline with Tween-80",114 % of control
same,T/C,[22],113 % of control
COc1ccc(C2=[N+]([O-])C(C)(C)C(c3ccccc3)C2)cc1 (stereo not given),T/C,[9],97 % of control
same,T/C,[10],101 % of control
same,T/C,[11],100 % of control
COc1cc2c(cc1OC(C)=O)C(=O)C(Br)CCC2 (stereo not given),T/C,[15],89 % of control
same,T/C,[16],86 % of control
CC1(C)OC2(CC1C1(C)C=CC(=O)O1)CC1(O)C(CCC34CC13C(=O)OC4c1ccoc1)O2 (stereo not given),T/C,[19],97 % of control
same,T/C,[20],90 % of control
same,T/C,[21],90 % of control
